PubChem BioAssay AID1919007 (Molecular Pharmacology Branch, DTP, NCI, 2023)

Test system: A498 complex spheroids with HUVEC/MSC, growth
Assay: Anticancer human tumor A498 cell line growth inhibition [AhR];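 note: seven day exposure starting three days after spheroid seeding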;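 for viability, T/C: luminescence signal used as a surrogate for viable cells; luminescence viability scaled so 100% equals DMSO vehicle wells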
Conditions: for IC50: curve of first compound; for viability, T/C: stronger effect = lower value
Summary of the method: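 Spheroids combined tumor cells with HUVEC endothelial cells and human MSCs as stroma. AhR antagonists were paired with standard or investigational drugs, each dosed in half-log steps down from near clinical Cmax, or from 10 microM where Cmax was unknown.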

## O=C(C=Cn1cnc(-c2cc(C(F)(F)F)cc(C(F)(F)F)c2)n1)NNc1cnccn1 + Cc1ccccc1N=Nc1ccc(NC(=O)c2ccnn2C)c(C)c1
Second compound 0.1 µM
  IC50: 97.1 nM
Second compound 0.316 µM
  IC50: 55.1 nM
Second compound 1 µM
  IC50: 51.9 nM
Second compound 3.16 µM
  IC50: 43.5 nM
Second compound 10 µM
  IC50: 61.8 nM
Second compound 0.1 µM, first compound 0.00949 µM
  viability, T/C: 88.7%
Second compound 0.1 µM, first compound 0.03 µM
  viability, T/C: 77.2%
Second compound 0.1 µM, first compound 0.0949 µM
  viability, T/C: 47.9%
Second compound 0.1 µM, first compound 0.3 µM
  viability, T/C: 30.3%
Second compound 0.1 µM, first compound 0.949 µM
  viability, T/C: 19.8%
Second compound 0.1 µM, first compound 3 µM
  viability, T/C: 13.3%
Second compound 0.316 µM, first compound 0.00949 µM
  viability, T/C: 74.7%
Second compound 0.316 µM, first compound 0.03 µM
  viability, T/C: 62.4%
Second compound 0.316 µM, first compound 0.0949 µM
  viability, T/C: 39.1%
Second compound 0.316 µM, first compound 0.3 µM
  viability, T/C: 21.9%
Second compound 0.316 µM, first compound 0.949 µM
  viability, T/C: 19.1%
Second compound 0.316 µM, first compound 3 µM
  viability, T/C: 16.2%
Second compound 1 µM, first compound 0.00949 µM
  viability, T/C: 56.9%
Second compound 1 µM, first compound 0.03 µM
  viability, T/C: 75.9%
Second compound 1 µM, first compound 0.0949 µM
  viability, T/C: 31.9%
Second compound 1 µM, first compound 0.3 µM
  viability, T/C: 17.9%
Second compound 1 µM, first compound 0.949 µM
  viability, T/C: 17.6%
Second compound 1 µM, first compound 3 µM
  viability, T/C: 20.2%
Second compound 3.16 µM, first compound 0.00949 µM
  viability, T/C: 70.5%
Second compound 3.16 µM, first compound 0.03 µM
  viability, T/C: 62%
Second compound 3.16 µM, first compound 0.0949 µM
  viability, T/C: 24.6%
Second compound 3.16 µM, first compound 0.3 µM
  viability, T/C: 29.8%
Second compound 3.16 µM, first compound 0.949 µM
  viability, T/C: 21.4%
Second compound 3.16 µM, first compound 3 µM
  viability, T/C: 19.4%
Second compound 10 µM, first compound 0.00949 µM
  viability, T/C: 73.8%
Second compound 10 µM, first compound 0.03 µM
  viability, T/C: 68.4%
Second compound 10 µM, first compound 0.0949 µM
  viability, T/C: 37.8%
Second compound 10 µM, first compound 0.3 µM
  viability, T/C: 29.6%
Second compound 10 µM, first compound 0.949 µM
  viability, T/C: 20.3%
Second compound 10 µM, first compound 3 µM
  viability, T/C: 18.8%
